Laboratory results: PMC8869984, “Multifunctional Silver(I) Complexes with Metronidazole Drug Reveal Antimicrobial Properties and Antitumor Activity against Human Hepatoma and Colorectal Adenocarcinoma Cells” (Cancers, 2022)

Experiments:
Caco-2 cells [1] = assay: MTT assay (mitochondrial activity), 72 h exposure; assay type: cell-based, human; settings: Caco-2, MTT, Figure 6
Caco-2 cells [2] = assay: NRU assay (lysosomal activity), 72 h exposure; assay type: cell-based, human; settings: Caco-2, NRU, Figure 6
Caco-2 cells [3] = assay: TPC assay (total protein content), 72 h exposure; assay type: cell-based, human; settings: Caco-2, TPC, Figure 6
Caco-2 cells [4] = assay: LDH leakage assay (membrane integrity), 72 h exposure; assay type: cell-based, human; settings: Caco-2, LDH, Figure 6
S. aureus ATCC 25923 = assay: micro-dilution broth method (MIC, MBC); assay type: cell-based, Staphylococcus aureus
[5] = system: S. epidermidis ATCC 12228; assay: micro-dilution broth method (MIC, MBC); assay type: cell-based, Staphylococcus epidermidis
M. luteus ATCC 10240 = assay: micro-dilution broth method (MIC, MBC); assay type: cell-based, Micrococcus luteus
B. subtilis ATCC 6633 = assay: micro-dilution broth method (MIC, MBC); assay type: cell-based, Bacillus subtilis
B. cereus ATCC 10876 = assay: micro-dilution broth method (MIC, MBC); assay type: cell-based, Bacillus cereus
E. faecalis ATCC 29212 = assay: micro-dilution broth method (MIC, MBC); assay type: cell-based, Enterococcus faecalis
A. israeli ATCC 10049 = assay: micro-dilution broth method (MIC, MBC); assay type: cell-based, Actinomyces israelii
P. acnes ATCC 11827 = assay: micro-dilution broth method (MIC, MBC); assay type: cell-based, Propionibacterium acnes; settings: P. acnes ATCC 11827, value in brackets
[6] = system: C. perfringens ATCC 13124; assay: microbe, parasite or virus in culture; assay type: cell-based, Clostridium perfringens
C. jejunii ATCC 33291 = assay: micro-dilution broth method (MIC, MBC); assay type: cell-based, Campylobacter jejunii
H. pylori ATCC 43504 = assay: micro-dilution broth method (MIC, MBC); assay type: cell-based
[7] = system: S. typhimurium ATCC 14028; assay: micro-dilution broth method (MIC, MBC); assay type: cell-based, Salmonella Typhimurium
E. coli ATCC 25922 = assay: micro-dilution broth method (MIC, MBC); assay type: cell-based, Escherichia coli
K. pneumoniae ATCC 13883 = assay: micro-dilution broth method (MIC, MBC); assay type: cell-based, Klebsiella pneumoniae
P. aeruginosa ATCC 9027 = assay: micro-dilution broth method (MIC, MBC); assay type: cell-based, Pseudomonas aeruginosa
B. fragilis ATCC 10240 = assay: micro-dilution broth method (MIC, MBC); assay type: cell-based, Bacteroides fragilis
P. intermedia ATCC 25611 = assay: micro-dilution broth method (MIC, MBC); assay type: cell-based
F. nucleatum ATCC 25586 = assay: micro-dilution broth method (MIC, MBC); assay type: cell-based, Fusobacterium nucleatum
V. parvula ATCC 10790 = assay: micro-dilution broth method (MIC, MBC); assay type: cell-based, Veillonella parvula
[8] = system: reference aerobic and anaerobic microorganisms (ATCC); assay: micro-dilution broth method, whole panel of reference strains; assay type: cell-based; settings: against the majority of tested bacterial strains
S. aureus biofilm = assay: qualitative antibiofilm activity, confocal laser scanning microscope (CLSM); settings: 500 mg/L, 24 h exposure
[9] = S. aureus ATCC 25923, value in brackets
[10] = S. epidermidis ATCC 12228, value in brackets
[11] = M. luteus ATCC 10240, value in brackets
[12] = B. subtilis ATCC 6633, value in brackets
[13] = B. cereus ATCC 10876, value in brackets
[14] = E. faecalis ATCC 29212, value in brackets
[15] = A. israeli ATCC 10049, value in brackets
[16] = C. perfringens ATCC 13124, value in brackets
[17] = C. jejunii ATCC 33291, value in brackets
[18] = H. pylori ATCC 43504, value in brackets
[19] = S. typhimurium ATCC 14028, value in brackets
[20] = E. coli ATCC 25922, value in brackets
[21] = K. pneumoniae ATCC 13883, value in brackets
[22] = P. aeruginosa ATCC 9027, value in brackets
[23] = B. fragilis ATCC 10240, value in brackets
[24] = P. intermedia ATCC 25611, value in brackets
[25] = F. nucleatum ATCC 25586, value in brackets
[26] = V. parvula ATCC 10790, value in brackets

SMILES: Cc1ncc([N+](=O)[O-])n1CCO.Cc1ncc([N+](=O)[O-])n1CCO.O=[N+]([O-])[O-].[Ag+] [[Ag(MTZ)2NO3]]
- lowest concentration with inhibition of mitochondrial activity (Caco-2 cells [1]): 5.0 µM
- lowest concentration with inhibition of lysosomal activity (Caco-2 cells [2]): 5.0 µM
- lowest concentration with decreased total protein content (Caco-2 cells [3]): 10.0 µM
- lowest concentration with significant (p ≤ 0.05) disintegration of cellular membranes (Caco-2 cells [4]): 1.0 µM
- MBC (S. aureus ATCC 25923; S. aureus ATCC 25923): 62.5 mg/L
- MIC (S. aureus ATCC 25923; S. aureus ATCC 25923): 15.6 mg/L
- MBC (S. aureus ATCC 25923; [9]): 0.2 µM/mL
- MIC (S. aureus ATCC 25923; [9]): 0.049 µM/mL
- MBC ([5]; S. epidermidis ATCC 12228): 62.5 mg/L
- MIC ([5]; S. epidermidis ATCC 12228): 7.8 mg/L
- MBC [5, 10]: 0.2 µM/mL
- MIC [5, 10]: 0.025 µM/mL
- MBC (M. luteus ATCC 10240; M. luteus ATCC 10240): 62.5 mg/L
- MIC (M. luteus ATCC 10240; M. luteus ATCC 10240): 7.8 mg/L
- MBC (M. luteus ATCC 10240; [11]): 0.2 µM/mL
- MIC (M. luteus ATCC 10240; [11]): 0.025 µM/mL
- MBC (B. subtilis ATCC 6633; B. subtilis ATCC 6633): 15.6 mg/L
- MIC (B. subtilis ATCC 6633; B. subtilis ATCC 6633): 15.6 mg/L
- MBC (B. subtilis ATCC 6633; [12]): 0.049 µM/mL
- MIC (B. subtilis ATCC 6633; [12]): 0.049 µM/mL
- MIC (B. cereus ATCC 10876; B. cereus ATCC 10876): 62.5 mg/L
- MBC (B. cereus ATCC 10876; [13]): 0.4 µM/mL
- MIC (B. cereus ATCC 10876; [13]): 0.2 µM/mL
- MBC (E. faecalis ATCC 29212; E. faecalis ATCC 29212): 62.5 mg/L
- MIC (E. faecalis ATCC 29212; E. faecalis ATCC 29212): 31.3 mg/L
- MBC (E. faecalis ATCC 29212; [14]): 0.2 µM/mL
- MIC (E. faecalis ATCC 29212; [14]): 0.1 µM/mL
- MBC (A. israeli ATCC 10049; A. israeli ATCC 10049): 3.9 mg/L
- MIC (A. israeli ATCC 10049; A. israeli ATCC 10049): 0.49 mg/L
- MBC (A. israeli ATCC 10049; [15]): 0.012 µM/mL
- MIC (A. israeli ATCC 10049; [15]): 0.0015 µM/mL
- MBC (P. acnes ATCC 11827): 0.4 µM/mL
- MIC (P. acnes ATCC 11827): 0.4 µM/mL
- MBC ([6]; C. perfringens ATCC 13124): 1.95 mg/L
- MIC ([6]; C. perfringens ATCC 13124): 1.95 mg/L
- MBC [6, 16]: 0.006 µM/mL
- MIC [6, 16]: 0.006 µM/mL
- MIC (C. jejunii ATCC 33291; C. jejunii ATCC 33291): 31.3 mg/L
- MBC (C. jejunii ATCC 33291; [17]): 0.4 µM/mL
- MIC (C. jejunii ATCC 33291; [17]): 0.1 µM/mL
- MBC (H. pylori ATCC 43504; H. pylori ATCC 43504): 15.6 mg/L
- MIC (H. pylori ATCC 43504; H. pylori ATCC 43504): 15.6 mg/L
- MBC (H. pylori ATCC 43504; [18]): 0.049 µM/mL
- MIC (H. pylori ATCC 43504; [18]): 0.049 µM/mL
- MBC ([7]; S. typhimurium ATCC 14028): 31.3 mg/L
- MIC ([7]; S. typhimurium ATCC 14028): 15.6 mg/L
- MBC [7, 19]: 0.1 µM/mL
- MIC [7, 19]: 0.049 µM/mL
- MBC (E. coli ATCC 25922; E. coli ATCC 25922): 31.3 mg/L
- MIC (E. coli ATCC 25922; E. coli ATCC 25922): 15.6 mg/L
- MBC (E. coli ATCC 25922; [20]): 0.1 µM/mL
- MIC (E. coli ATCC 25922; [20]): 0.049 µM/mL
- MBC (K. pneumoniae ATCC 13883; K. pneumoniae ATCC 13883): 31.3 mg/L
- MIC (K. pneumoniae ATCC 13883; K. pneumoniae ATCC 13883): 15.6 mg/L
- MBC (K. pneumoniae ATCC 13883; [21]): 0.1 µM/mL
- MIC (K. pneumoniae ATCC 13883; [21]): 0.049 µM/mL
- MBC (P. aeruginosa ATCC 9027; P. aeruginosa ATCC 9027): 15.6 mg/L
- MIC (P. aeruginosa ATCC 9027; P. aeruginosa ATCC 9027): 7.8 mg/L
- MBC (P. aeruginosa ATCC 9027; [22]): 0.049 µM/mL
- MIC (P. aeruginosa ATCC 9027; [22]): 0.025 µM/mL
- MBC (B. fragilis ATCC 10240; B. fragilis ATCC 10240): 0.98 mg/L
- MIC (B. fragilis ATCC 10240; B. fragilis ATCC 10240): 0.98 mg/L
- MBC (B. fragilis ATCC 10240; [23]): 0.003 µM/mL
- MIC (B. fragilis ATCC 10240; [23]): 0.003 µM/mL
- MBC (P. intermedia ATCC 25611; P. intermedia ATCC 25611): 0.98 mg/L
- MIC (P. intermedia ATCC 25611; P. intermedia ATCC 25611): 0.98 mg/L
- MBC (P. intermedia ATCC 25611; [24]): 0.003 µM/mL
- MIC (P. intermedia ATCC 25611; [24]): 0.003 µM/mL
- MBC (F. nucleatum ATCC 25586; F. nucleatum ATCC 25586): 0.98 mg/L
- MIC (F. nucleatum ATCC 25586; F. nucleatum ATCC 25586): 0.49 mg/L
- MBC (F. nucleatum ATCC 25586; [25]): 0.003 µM/mL
- MIC (F. nucleatum ATCC 25586; [25]): 0.0015 µM/mL
- MBC (V. parvula ATCC 10790; V. parvula ATCC 10790): 1.95 mg/L
- MIC (V. parvula ATCC 10790; V. parvula ATCC 10790): 1.95 mg/L
- MBC (V. parvula ATCC 10790; [26]): 0.006 µM/mL
- MIC (V. parvula ATCC 10790; [26]): 0.006 µM/mL
- minimal inhibition concentration (MIC), range [8]: 0.24 to 250 µg/mL
- effect on biofilm (CLSM, qualitative) (S. aureus biofilm): significantly reduced biofilm density
